Data set [1] in a line: Clearance in ICR mouse at 1 mg/kg,iv measured upto 24 hrs. Format: ADME, organism-based. To be noted: in vivo.
The nature of data set [2]: Tmax in ICR mouse at 10 mg/kg,po measured upto 24 hrs. The format is ADME, organism-based. To be noted: in vivo.
Data set [3] is described as follows: Half life in ICR mouse at 1 mg/kg,iv measured upto 24 hrs. Format: ADME, organism-based. The settings on record: in vivo.
The nature of data set [4]: Half life in ICR mouse at 10 mg/kg,po measured upto 24 hrs. To be noted: in vivo. The format is ADME, organism-based.
Data set [5] is described as follows: Cmax in ICR mouse at 1 mg/kg,iv measured upto 24 hrs. Format: ADME, organism-based. Also noted: time < 24 hrs, dose 1 mg/kg, route iv. The settings on record: in vivo.
Data set [6] can be described thus: Cmax in ICR mouse at 10 mg/kg,po measured upto 24 hrs. Format: ADME, organism-based. On the set-up: time < 24 hrs, dose 10 mg/kg, route po. The settings on record: in vivo.
Data set [7] in a line: AUClast in ICR mouse at 1 mg/kg,iv measured upto 24 hrs. Also noted: dose 1 mg/kg, time < 24 hrs, route iv. The settings on record: in vivo. The format is ADME, organism-based.
The nature of data set [8]: AUClast in ICR mouse at 10 mg/kg,po measured upto 24 hrs. To be noted: in vivo. On the set-up: time < 24 hrs, dose 10 mg/kg, route po. The format is ADME, organism-based.
Data set [9] can be described thus: Volume of distribution at steady state in ICR mouse at 1 mg/kg,iv measured upto 24 hrs. Format: ADME, organism-based. To be noted: in vivo, read-out: Vdss.
A short description of data set [10]: Oral bioavailability in ICR mouse at 10 mg/kg measured upto 24 hrs. Format: ADME, organism-based. The settings on record: in vivo.
Data set [11] is described as follows: Aqueous solubility of compound in FeSSIF at pH 4.83. The format is physicochemical.
Data set [12] is described as follows: Aqueous solubility of compound in FaSSIF at pH 6.28. The format is physicochemical.
Data set [13] in a line: Aqueous solubility of compound in SGF at pH 2.26. The format is physicochemical.
A short description of data set [14]: Apparent permeability across apical to basolateral side in human Caco-2 cells. The format is ADME, cell-based. (In general: Caco-2 monolayers are a common model of the intestinal barrier.)
The nature of data set [15]: Apparent permeability across basolateral to apical side in human Caco-2 cells. Format: ADME, cell-based.
The nature of data set [16]: Half life in human liver microsomes. Format: ADME, Microsome. Background: Liver microsomes are vesicles of endoplasmic reticulum, rich in cytochrome P450 enzymes.
A short description of data set [17]: Half life in mouse liver microsomes. The format is ADME, Microsome.
Data set [18] is described as follows: Half life in rat liver microsomes. The format is ADME, Microsome.
Data set [19] can be described thus: Half life in dog liver microsomes. The format is ADME, Canis lupus familiaris, Microsome.
The nature of data set [20]: Half life in monkey liver microsomes. Format: ADME, Macaca mulatta, Microsome. The settings on record: rhesus monkey.
The nature of data set [21]: Half life in mouse Hepatocyte. The settings on record: hepatocytes. Format: ADME, cell-based.
Data set [22] can be described thus: Cmax in C57BL/6 mouse at 1 mg/kg,po measured upto 24 hrs. The settings on record: in vivo. Format: ADME, organism-based. Also noted: dose 1 mg/kg, time < 24 hrs, route po.
Data set [23] can be described thus: Oral bioavailability in rat at 10 mg/kg measured upto 24 hrs. The format is ADME, organism-based. To be noted: in vivo.
The nature of data set [24]: Oral bioavailability in dog at 10 mg/kg measured upto 24 hrs. The format is ADME, organism-based, Canis lupus familiaris. To be noted: in vivo.
Data set [25] in a line: Drug distribution in C57BL/6 mouse plasma at po administration. Format: ADME, organism-based. The settings on record: in vivo.

The text below walks through data of ChEMBL document CHEMBL5375977, “Discovery of a First-in-Class GPR183 Antagonist for the Potential Treatment of Rheumatoid Arthritis” (J Med Chem, 2023).

≈ marks a conversion by molar mass, not a printed value. Where only a bound is given, the exact number is not on record here.

What is called clearance is the volume of plasma or blood freed of the substance per unit of time. The term Tmax denotes the time at which the peak concentration occurs. Usually half-life stands for the time in which the quantity being followed falls by half. For orientation: Cmax means the highest concentration seen after dosing. A word on the AUC(0-t): it is the area under the concentration-time curve up to a stated or last time point. Take `O=C(/C=C/c1ccc2c(c1)OC(F)(F)O2)N1CCN(C(=O)N2CCC2)CC1`: the clearance in [1] amounted to 27.9 mL/min/kg. Also, the time of peak concentration (Tmax) in data set [2] was 0.25 h. Also, the half-life in [3] was 0.42 h; in data set [4] it was 1.43 h. In addition, the Cmax worked out at 1000 ng/mL in data set [5] and 4900 ng/mL in [6]. For the same compound, the AUC(0-t) at 24 h in data set [7] was found to be 586 ng·h/mL; in data set [8] it was 6840 ng·h/mL. Also, in [9], the Vd stood at 0.94 L/kg. Further, in data set [10], the bioavailability amounted to 116%.

As a reminder, the solubility is how much of the substance goes into solution per volume. The term Papp A→B denotes the apparent permeability from the apical to the basolateral side of a cell layer. A word on the Papp B→A: it is how fast a substance crosses the layer from the basolateral side. `COc1ncc(C(=O)N2CCN(C(=O)/C=C/c3ccc4c(c3)OC(F)(F)O4)CC2)cn1` yielded a clearance in data set [1] of 3.98 mL/min/kg. In data set [2], the Tmax worked out at 1.33 h. Also, the Cmax in data set [6] was 5900 ng/mL; in data set [22] it was 878 ng/mL. Also, the values for the AUC(0-t) at 24 h in data set [7] and in [8] were 4190 ng·h/mL and 49700 ng·h/mL, respectively. For the same compound, the solubility in data set [11] was 134 µM (≈ 57.9 µg/mL); in data set [12] it was 40 µM (≈ 17.3 µg/mL); in data set [13] it was 63 µM (≈ 27.2 µg/mL). In addition, the Papp A→B in [14] amounted to 19.6 ×10⁻⁶ cm/s. In addition, the Papp B→A in data set [15] worked out at 16 ×10⁻⁶ cm/s. The half-life was above 3.11 h in data set [16]; above 3.11 h in data set [17]; above 3.11 h in data set [18]; above 3.11 h in data set [19]; above 3.11 h in data set [20]; 22.2 h in data set [21]. Moreover, the bioavailability in [23] and in data set [24] was above 100% in each case. In data set [25], the Drug uptake result is recorded as “Dose-Dependent Effect”.
